According to the NIST ThermoML archive (doi:10.1021/je5010214):

Settings: Liquid, Vibrating tube method

CCCCO [butan-1-ol]
Settings	mass density [kg/m3]
323.15 K, 34081 kPa	811.155
323.15 K, 35113 kPa	811.773
323.15 K, 37953 kPa	813.623
323.15 K, 42011 kPa	816.075
323.15 K, 48025 kPa	819.642
323.15 K, 49934 kPa	820.799
323.15 K, 52114 kPa	821.994
323.15 K, 54964 kPa	823.594
323.15 K, 58045 kPa	825.293
323.15 K, 60050 kPa	826.448
323.15 K, 62131 kPa	827.565
323.15 K, 64999 kPa	829.093
323.16 K, 920.7 kPa	786.888
323.16 K, 27958 kPa	807.28
323.16 K, 30055 kPa	808.674
323.16 K, 33067 kPa	810.61
323.16 K, 40047 kPa	814.861
323.16 K, 44937 kPa	817.856
323.16 K, 66131 kPa	829.687
328.15 K, 97.9 kPa	781.987
328.15 K, 289.9 kPa	782.179
328.15 K, 897.5 kPa	782.733
328.15 K, 994.1 kPa	782.825
328.15 K, 1988.8 kPa	783.741
328.15 K, 2996.7 kPa	784.66
328.15 K, 5013.4 kPa	786.446
328.15 K, 6974.9 kPa	788.15
328.15 K, 9017 kPa	789.881
328.15 K, 10040 kPa	790.727
328.15 K, 24924 kPa	802.164
328.15 K, 27979 kPa	804.324
328.15 K, 29958 kPa	805.68
328.15 K, 32060 kPa	807.104
328.15 K, 33066 kPa	807.772
328.15 K, 33107 kPa	807.703
328.15 K, 34013 kPa	808.285
328.15 K, 35030 kPa	808.989
328.15 K, 38010 kPa	810.915
328.15 K, 39969 kPa	812.181
328.15 K, 41959 kPa	813.311
328.15 K, 44953 kPa	815.144
328.15 K, 47978 kPa	816.959
328.15 K, 49927 kPa	818.128
328.15 K, 51997 kPa	819.32
328.15 K, 54947 kPa	821.045
328.15 K, 57939 kPa	822.658
328.15 K, 59991 kPa	823.77
328.15 K, 61982 kPa	824.89
328.15 K, 65032 kPa	826.439
328.15 K, 66046 kPa	826.965
328.16 K, 501 kPa	782.371
328.16 K, 12210 kPa	792.522
328.16 K, 15055 kPa	794.783
328.16 K, 18061 kPa	797.122
328.16 K, 20279 kPa	798.799
328.16 K, 22013 kPa	800.057
333.15 K, 532.6 kPa	779.903
333.15 K, 897.8 kPa	780.245
333.15 K, 1987.2 kPa	781.249
333.15 K, 3023.4 kPa	782.177
333.15 K, 4997.4 kPa	783.921
333.15 K, 7002.4 kPa	785.686
333.15 K, 9032 kPa	787.401
333.15 K, 10210 kPa	788.367
333.15 K, 15008 kPa	792.251
333.15 K, 22034 kPa	797.567
333.15 K, 28040 kPa	801.782
333.15 K, 30016 kPa	803.156
333.15 K, 32067 kPa	804.524
333.15 K, 34086 kPa	805.827
333.15 K, 35075 kPa	806.492
333.15 K, 37894 kPa	808.332
333.15 K, 40111 kPa	809.759
333.15 K, 41947 kPa	810.938
333.15 K, 44974 kPa	812.823
333.15 K, 45490 kPa	813.093
333.15 K, 47936 kPa	814.509
333.15 K, 49920 kPa	815.727
333.15 K, 51953 kPa	816.927
333.15 K, 54876 kPa	818.691
333.15 K, 58057 kPa	820.5
333.15 K, 59993 kPa	821.547
333.15 K, 62049 kPa	822.689
333.15 K, 64970 kPa	824.293
333.15 K, 66005 kPa	824.853
333.16 K, 87.7 kPa	779.482
333.16 K, 303.5 kPa	779.691
333.16 K, 1003 kPa	780.346
333.16 K, 12011 kPa	789.847
333.16 K, 17992 kPa	794.568
333.16 K, 20036 kPa	796.123
333.16 K, 25027 kPa	799.667
333.16 K, 33073 kPa	805.134
338.15 K, 80.9 kPa	775.106
338.15 K, 309.8 kPa	775.333
338.15 K, 561.6 kPa	775.578
338.15 K, 898.5 kPa	775.911
338.15 K, 1014.1 kPa	776.019
338.15 K, 2936.1 kPa	777.859
338.15 K, 5018.6 kPa	779.821
338.15 K, 10034 kPa	784.276
338.15 K, 14885 kPa	788.349
338.15 K, 17956 kPa	790.925
338.15 K, 19927 kPa	792.473
338.15 K, 22041 kPa	794.077
338.15 K, 25026 kPa	796.362
338.15 K, 29994 kPa	799.911
338.15 K, 32882 kPa	801.907
338.15 K, 33937 kPa	802.603
338.15 K, 35012 kPa	803.345
338.15 K, 39987 kPa	806.717
338.15 K, 41990 kPa	808.025
338.15 K, 44978 kPa	809.926
338.15 K, 47971 kPa	811.881
338.15 K, 49999 kPa	813.099
338.15 K, 52127 kPa	814.375
338.15 K, 57940 kPa	817.865
338.15 K, 60014 kPa	819.058
338.15 K, 65012 kPa	821.872
338.15 K, 66057 kPa	822.451
338.16 K, 2000.2 kPa	776.987
338.16 K, 6917.3 kPa	781.55
338.16 K, 9046.9 kPa	783.457
338.16 K, 11959 kPa	785.981
338.16 K, 27976 kPa	798.446
338.16 K, 31949 kPa	801.318
338.16 K, 37962 kPa	805.345
338.16 K, 54992 kPa	816.085
338.16 K, 62074 kPa	820.252
338.16 K, 67534 kPa	823.221
343.15 K, 73.7 kPa	769.631
343.15 K, 297.3 kPa	769.853
343.15 K, 520.3 kPa	770.07
343.15 K, 911.7 kPa	770.459
343.15 K, 1017.7 kPa	770.563
343.15 K, 1994.6 kPa	771.497
343.15 K, 2332.5 kPa	771.83
343.15 K, 2968.3 kPa	772.434
343.15 K, 4994.8 kPa	774.313
343.15 K, 6976.6 kPa	776.117
343.15 K, 9002.6 kPa	777.941
343.15 K, 10060 kPa	778.847
343.15 K, 12025 kPa	780.506
343.15 K, 14928 kPa	782.929
343.15 K, 17975 kPa	785.398
343.15 K, 19985 kPa	786.983
343.15 K, 22033 kPa	788.56
343.15 K, 25091 kPa	790.858
343.15 K, 28045 kPa	793.012
343.15 K, 30082 kPa	794.441
343.15 K, 32170 kPa	795.891
343.15 K, 33097 kPa	796.546
343.15 K, 35030 kPa	797.771
343.15 K, 37943 kPa	799.701
343.15 K, 40012 kPa	801.058
343.15 K, 41972 kPa	802.307
